Experimental data taken from patent publication US7238689B2, “Isoxazoline derivative and herbicide comprising the same as active ingredient” (Ihara Chemical Industry Co., Ltd., priority 2001, dated 2007).

Legend:
Format in all cases: in vivo
Parameters in all cases: scale not given here
[1] = tested on: Setaria viridis (L.) Beauv.; test: Herbicidal effect by upland field soil treatment; details: active ingredient 1000 g/ha, examined at 21st day from treatment
Text: (§1) An upland field soil was filled in a plastic pot of 80 cm^2. Seeds of Echinochloa crus-galli (L.) Beauv. var. crusgalli and Setaria viridis (L.) Beauv. were sowed, followed by covering with the same soil. […] Then, breeding was made in a greenhouse, and the herbicidal effect of each wettable powder was examined at the 21st day from the treatment in accordance with the standard shown in Table 21.

[2] = tested on: Echinochloa crus-galli (L.) Beauv. var. crusgalli; test: Herbicidal effect by upland field soil treatment; details: active ingredient 1000 g/ha, examined at 21st day from treatment
Text: as §1

[3] = tested on: Echinochloa oryzicola Vasing; test: Herbicidal effect by paddy field soil treatment; details: wettable powder, active ingredient 1000 g/ha, examined at the 21st day from the treatment
Procedure, shortened: (§2)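 Seeds sown in puddled paddy soil under 3 cm of water; the next day wettable powders diluted in water were dropped onto the water surface at 1,000 g active ingredient/ha. Plants grown in a greenhouse, with herbicidal effect scored on day 21 against a rating standard.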

[4] = tested on: Monochoria vaginalis (Murm. f.) Presl var. plantaginea (Roxb.) Solms-Laub.; test: Herbicidal effect by paddy field soil treatment; details: wettable powder, active ingredient 1000 g/ha, examined at the 21st day from the treatment
Procedure, shortened: as §2

[5] = tested on: Echinochloa crus-galli (L.) Beauv. var. crus-galli; test: Herbicidal effect by upland foliage treatment; details: active ingredient 1000 g/ha, examined at 14th day from treatment
Method: (§3) A sand was filled in a plastic pot of 80 cm^2. Seeds of Echinochloa crus-galli (L.) Beauv. var. crus-galli and Setaria viridis (L.) Beauv. were sowed. Breeding was made in a greenhouse for 2 weeks. Wettable powders produced in accordance with the Formulation 1 were diluted with water and sprayed on the whole foliage of plants from above the plants using a small sprayer in an amount of 1,000 liters per 1 hectare so that the amount of each active ingredient became 1,000 g per 1 hectare. Then, breeding was made in the greenhouse, and the herbicidal effect of each wettable powder was examined at the 14th day from the treatment in accordance with the standard shown in Table 21.

[6] = tested on: Setaria viridis (L.) Beauv.; test: Herbicidal effect by upland foliage treatment; details: active ingredient 1000 g/ha, examined at 14th day from treatment
Method: as §3

Compound | herbicidal effect (index per standard of Table 21), Setaria viridis (L.) Beauv. [1] | herbicidal effect (index per standard of Table 21), Echinochloa curs-galli (L.) Beauv. Var. crus-galli [2] | Herbicidal effect index, Echinochloa oryzicola Vasing [3] | Herbicidal effect index, Monochoria vaginalis (Burm. F.) Presl var. plantaginea (Roxb.) Solms-Laub. [4] | herbicidal effect (index per standard of Table 21), Echinochloa curs-galli (L.) Beauv. Var. crus-galli [5] | herbicidal effect (index per standard of Table 21), Setaria viridis (L.) Beauv. [6]
5,5-dimethyl-[(4-methoxy-6-trifluoromethylpyrimidin-5-yl)-methylsulfonyl]-2-isoxazoline [8-0001] | 5 | 5 | 5 | 5 | 5 | 4
Cc1nn(C)c(Cl)c1CS(=O)(=O)C1=NOC(C)(C)C1 [3-0037] | 5 | 5 | 5 | 5 | 5 | 4
Cc1noc(C)c1CS(=O)(=O)C1=NOC(C)(C)C1 [4-0005] | 5 | 5 | 5 | 5 | 5 | 4
CC(=O)c1c(C)sc(C)c1CS(=O)(=O)C1=NOC(C)(C)C1 [2-0008] | 5 | 5 | 5 | 5 | 5 | 5
CC1(C)CC(S(=O)(=O)Cc2c(Cl)nn(CC(F)F)c2C(F)(F)F)=NO1 [3-0115] | 5 | 5 | 5 | 5 | 5 | 4
CC1(C)CC(S(=O)(=O)Cc2csc(Cl)n2)=NO1 [9-0008] | 5 | 5 | 5 | 5 | 4 | 4
Cn1ncc(CS(=O)(=O)C2=NOC(C)(C)C2)c1Cl [3-0035] | 5 | 5 | 5 | 5 | 4 | 4
Cc1cc[n+]([O-])c(Cl)c1CS(=O)(=O)C1=NOC(C)(C)C1 [7-0008] | 5 | 5 | 5 | 5 | 5 | 5
CCOCn1nc(C(F)(F)F)c(CS(=O)(=O)C2=NOC(C)(C)C2)c1Cl [3-0120] | 5 | 5 | 5 | 5 | 5 | 5
Cc1ccsc1CS(=O)(=O)C1=NOC(C)(C)C1 [1-0001] | 5 | 5 | 5 | 5 | 5 | 4
C=CCn1nc(C(F)(F)F)c(CS(=O)(=O)C2=NOC(C)(C)C2)c1Cl [3-0104] |  |  |  |  | 5 | 4
Cn1nc(C(F)(F)F)c(CS(=O)(=O)C2=NOC(C)(C)C2)c1OC1CCCCC1 [3-0049] | 5 | 5 | 5 | 5 | 4 | 4
Cc1nn(C)c(C)c1CS(=O)(=O)C1=NOC(C)(C)C1 [3-0036] | 5 | 5 |  |  | 4 | 4
CC1(C)CC(S(=O)(=O)Cc2c(C(F)(F)F)nn(CC3CC3)c2Cl)=NO1 [3-0092] |  |  |  |  | 4 | 4
CC(C)n1nc(Cl)c(CS(=O)(=O)C2=NOC(C)(C)C2)c1C(F)(F)F [3-0076] |  |  |  |  | 5 | 4
C#CCn1nc(C(F)(F)F)c(CS(=O)(=O)C2=NOC(C)(C)C2)c1Cl [3-0106] |  |  |  |  | 5 | 4
C=CCn1nc(Cl)c(CS(=O)(=O)C2=NOC(C)(C)C2)c1C(F)(F)F [3-0105] |  |  |  |  | 5 | 4
CCCn1nc(C(F)(F)F)c(CS(=O)(=O)C2=NOC(C)(C)C2)c1Cl [3-0077] |  |  |  |  | 5 | 4
C#CCn1nc(Cl)c(CS(=O)(=O)C2=NOC(C)(C)C2)c1C(F)(F)F [3-0107] |  |  |  |  | 5 | 5
CC1(C)CC(S(=O)(=O)Cc2c(C(F)(F)F)nn(CS(C)(=O)=O)c2Cl)=NO1 [3-0130] | 5 | 5 | 5 | 5 |  | 
CC1(C)CC(S(=O)(=O)Cc2oc3ccccc3c2Br)=NO1 [10-0014] | 5 | 5 | 5 | 5 |  | 
CCOCCn1nc(C(F)(F)F)c(CS(=O)(=O)C2=NOC(C)(C)C2)c1Cl [3-0126] | 5 | 5 | 5 | 5 |  | 
CSCn1nc(Cl)c(CS(=O)(=O)C2=NOC(C)(C)C2)c1C(F)(F)F [3-0129] | 5 | 5 | 5 | 5 |  | 
CC1(C)CC(S(=O)(=O)Cc2c(C(F)(F)F)nn(-c3ccccc3)c2C(F)(F)F)=NO1 [3-0153] | 5 | 5 | 5 | 5 |  | 
Cc1cc2cccc(CS(=O)(=O)C3=NOC(C)(C)C3)c2o1 [10-0013] | 5 | 5 | 5 | 5 |  | 
Cc1nn(-c2ccccc2)c(CS(=O)(=O)C2=NOC(C)(C)C2)c1OC(F)F [5-0006] | 5 | 5 | 5 | 5 |  | 
